Measured values reported in patent publication EP3335720A1, “C-DI-GMP BINDING PEPTIDES” (Universität Basel, priority 2016, dated 2018).

Key:
c-di-GMP = assay: Binding affinity of peptides to c-di-GMP by isothermal titration calorimetry (ITC); conditions: for Dissociation constant: pH 8.0
Description: Binding affinities of peptides to c-di-GMP were measured using isothermal titration calorimetry (ITC) on a VP-ITC MicroCalorimeter (MicroCal, Northampton, MA, USA). Peptides, c-di-GMP and buffer (50 mM Tris-HCl, pH 8.0, 100 mM NaCl) were degassed for 15 min prior to filling into sample cell and syringe. All experiments were carried out at a temperature of 15°C. The data were evaluated using ITC Data Analysis in ORIGIN provided by the manufacturer.

in vitro [1] = type: in vitro ADME, P. aeruginosa PAO1
Description: (§1) P. aeruginosa PAO1 lysate, which was used to test peptide stability, was prepared by the following procedure. 500 ml of cells grown overnight at 37°C were harvested by centrifugation at 5000 rpm, 10 min at 4°C. Pellets were resuspended in 60 ml PBS (Gibco) and centrifuged at 5000 rpm, 10 min at 4°C. Pellets were resuspended again in 20 ml PBS and centrifuged at 5000 rpm, 10 min at 4°C. Cells were disrupted using high-pressure cell disrupter (Stansted Fluid Power). Cell lysate was separated from cell debris by centrifugation at 14,000 rpm for 20 min at 4°C. Lysate was diluted 10 fold to yield a protein content of about 1 mg/ml. The lysate was used for all experiments described below.
The stability of peptides was tested against P. aeruginosa PAO1 cell lysate. About 1 to 3 µg of peptides were incubated with 5 µl P. aeruginosa PAO1 cell lysate or PBS (untreated controls) at 37°C. After 2 hours, 6 µl of 2x SDS sample buffer was added to the samples and heated to 95°C for 5 min. Samples were analyzed on 10-20% Mini-PROTEAN tris-tricine gels (BIO-RAD #4563115) according to manufacturer's recommended protocol. Band intensities were quantified using the program ImageJ (Schneider, C. A., Rasband, W. S. and Eliceiri, K. W. 2012. NIH Image to ImageJ: 25 years of image analysis. Nature methods. 9: 671-675).

[2] = system: P. aeruginosa PAO1 biofilms; type: cell-based
Description: The parameter "MBIC50", as used herein, is defined as the peptide concentration leading to 50% biofilm reduction in a standard biofilm assay. Preferably, the medium used for the assay is Mueller-Hinton broth (MHB), since most bacteria can be grown in this medium, and it allows a reliable comparison of MBIC values. MBIC50 values in accordance with the invention are obtained by growing P. aeruginosa at 37°C in presence of different concentrations of peptides, without agitation, for 24 h, followed by staining the adherent biofilm, dissolving the biofilm and measuring the OD600.
The standard biofilm assay (O'Toole G.A., Pratt L.A., Watnick P.I., Newman D.K., Weaver V.B., and Kolter R. 1999. Genetic approaches to study of biofilms. Methods Enzymol. 310: 91-109) was followed with minor modification, i.e. Mueller-Hinton II broth (MHB) (Becton Dickinson #212322) was used instead of lysogenic broth (LB) or minimal medium. MHB is preferred by The European Committee on Antimicrobial Susceptibility Testing (EUCAST) as the medium for MIC determination because most bacteria can be grown in this medium, which allows a more reliable MIC values comparisons. The MBIC50 was defined as the peptide concentration leading to 50% biofilm reduction (de la Fuente-Nunez C., Korolik V., Bains M., Nguyen U., Breidenstein E. B. M., Horsman S., Lewenza S., Burrows L., Hancock, R. E. W. (2012) Inhibition of bacterial biofilm formation and swarming motility by a small synthetic cationic peptide. 56: 2696-2704). MBIC50 values were obtained by growing P. aeruginosa (PAO1) biofilms in 96-well plates (Falcon #353072) in presence of peptides at 37°C without agitation in MHB. After 24 hours, bacterial growth was evaluated by measuring the OD600 in a microtiter plate reader (EL800, BioTek). Afterwards, the plates were rinsed three times with demineralized water to remove non-attached bacteria. The adherent biofilms were stained with 0.1% Crystal Violet and subsequently dissolved in 20% acetic acid. Dissolved biofilms were quantified by measuring the OD600 in a microtiter plate reader.

in vitro [3] = type: in vitro ADME, P. aeruginosa PAO1; conditions: cells or culture medium
Description: as §1
The stability of peptides was tested against P. aeruginosa PAO1 cell lysate. […] Samples were analyzed on 10-20% Mini-PROTEAN tris-tricine gels (BIO-RAD #4563115) according to manufacturer's recommended protocol. Band intensities were quantified using the program ImageJ (Schneider, C. A., Rasband, W. S. and Eliceiri, K. W. 2012. NIH Image to ImageJ: 25 years of image analysis. Nature methods. 9: 671-675).
The protocol mentioned above was also used to compare stability of peptides in the presence of c-di-GMP. […] 14 µl samples were removed at 2, 4, 6 and 8 hours after incubation at 37°C and analyzed on tris-tricine gels as described above.

P. aeruginosa (PAO1) = assay: P. aeruginosa growth in presence of peptides (growth curves); type: cell-based; conditions: 64 mg/L peptides, 37°C, MHB; Figure 10
Description: Growth curves were obtained by growing P. aeruginosa (PAO1) in 96-well plates (Falcon #353072) in presence of 64 mg/L peptides at 37°C with agitation in Mueller-Hinton II Broth (MHB) (BD #212322) using an Epoch 2 microplate reader (BioTek).

epithelial HeLa cells = assay: Cytotoxicity assays: resazurin reduction assay and LDH release assay; type: cell-based, human; conditions: 24 hours, Figures 11 and 12
Description: The cytotoxicity of the peptides was determined with a Resazurin cell viability assay (Sigma #R7017). In a 96-well plate (Corning #3904), monolayers of epithelial HeLa ATCC CCL-2 cells were grown in 100 µl growth medium (DMEM (Sigma #D5796) containing 10% FCS). Afterwards, the medium was removed and either replaced by DMEM/10% FCS containing 2-fold serial diluted peptides with a highest concentration of 256 mg/L. After 24 hours, the medium was removed and replaced by 100 µl fresh growth medium. 1% Triton X-100 (Sigma) was used as positive lysis control. 20 µl of resazurin solution (0.1 mg/ml) was added. After 2 hours, the fluorescence signal was recorded using a microplate reader (Synergy H4 BioTek) with an excitation wavelength of 560 nm and emission wavelength 590 nm.
Cells were prepared and treated with peptides as described for the resazurin reduction assay. 24 hours after peptide treatment, control wells were treated with 1% Triton X-100 (Sigma) as lysis control. LDH release was measured using the LDH Cytotoxicity Detection Kit (Clontech). Absorbance was measured at 490 nm using a microplate reader (Synergy H4 BioTek). The percentage of cell death was calculated as follows: (LDH peptide treated - LDH untreated)/(LDH total lysis - LDH untreated)* 100.

[4] = Table 3, peptides with amino acid substitution, 15°C

Row | Substance | Dissociation constant (c-di-GMP; [4]) | Remaining peptide after 2 hours (in vitro [1]) | MBIC50 ([2]; PAO1, 24 h) | remaining at 2 h (in vitro [3]) | Kd (c-di-GMP; Table 3, peptides with amino acid substitution, 15°C, pH 8.0, read-out: Dissociation constant) | effect on bacterial growth (P. aeruginosa (PAO1)) | MBIC50 compared to the MBIC50 of the peptide of SEQ ID NO: 28 ([2]; lower) | concentration up to which no toxic effect was shown (epithelial HeLa cells) | binding affinity to c-di-GMP, in words (c-di-GMP; compared to the core sequence / peptide of SEQ ID NO: 12)
1 | Ac-DRRRFNSADYKGPRRAKAD-NH2 [compound 28] | no binding | 11% | 1 to 2 mg/L | 23% | – | – | – | – | –
2 | Ac-DRRRFNSADYKGPRRRKAD-NH2 [SEQ ID NO: 12, AC-DRRRFNSADYKGPRRRKAD-NH2] | – | 11% | – | 32% | 170 nM | do not show an effect on bacterial growth | about 4 fold | ≤ 64 µg/mL | –
3 | Ac-DRRRFNSADYKGPRRAKAD-NH2 [SEQ ID NO: 28, AC-DRRRFNSADYKGPRRAKAD-NH2] | no binding detected | – | – | – | – | do not show an effect on bacterial growth | – | – | significantly reduced binding affinities
